From US10363239B2, “Method for inhibiting growth of cancer cells” (Pain Therapeutics, Inc., priority 2013, dated 2019)
Read-outs that look alike come from different tables or passages of the source.

What was measured:
[1] = biological target: FLNA pentapeptide of SEQ ID NO: 1 (Bn-VAKGL) (Homo sapiens, UniProt P21333); test: FITC-NLX-based FLNA screening assay (inhibition of FITC-naloxone binding to Bn-VAKGL on streptavidin plates); details: 10 nM FITC-NLX
mu opiate receptor (MOR) = test: MOR agonist activity using [35S]GTPγS binding assay in striatal membranes; format: biochemical
Outline: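 Striatal membranes (200 μg) were preincubated 5 min at 30 °C in HEPES pH 7.5 with 100 mM NaCl, 1 mM MgCl2 and 0.5 nM [35S]GTPγS, then 5 min more with 0.1–10 μM compound. Gαo was immunoprecipitated and bound radioactivity counted by scintillation.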

[2] = FLNA-binding compound 0.01 μM, read-out: Percent Binding Inhibition
[3] = FLNA-binding compound 0.1 μM, read-out: Percent Binding Inhibition
[4] = FLNA-binding compound 1 μM, read-out: Percent Binding Inhibition
[5] = Series C-2, 0.1 μM compound, relative to DAMGO
[6] = Series C-2, 0.1 μM compound, [35S]GTPγS binding to Gαo, striatal membranes
[7] = Series C-2, 1 μM compound + 1 μM β-FNA
[8] = Series C-2, 1 μM compound + β-FNA, relative to DAMGO + BFNA
[9] = Series C-2, 1 μM compound, relative to DAMGO
[10] = Series C-2, 1 μM compound, [35S]GTPγS binding to Gαo, striatal membranes
[11] = read-out: Percent Binding Inhibition, FLNA-binding compound 0.01 μM
[12] = read-out: Percent Binding Inhibition, FLNA-binding compound 0.1 μM
[13] = read-out: Percent Binding Inhibition, FLNA-binding compound 1 μM
[14] = Series B, 0.1 μM compound, relative to DAMGO
[15] = Series B, 0.1 μM compound, [35S]GTPγS binding to Gαo, striatal membranes
[16] = Series B, 1 μM compound + 1 μM β-FNA
[17] = Series B, 1 μM compound + β-FNA, relative to DAMGO + BFNA
[18] = Series B, 1 μM compound, relative to DAMGO
[19] = Series B, 1 μM compound, [35S]GTPγS binding to Gαo, striatal membranes
[20] = Series C-1, 0.1 μM compound, relative to DAMGO
[21] = Series C-1, 0.1 μM compound, [35S]GTPγS binding to Gαo, striatal membranes
[22] = Series C-1, 1 μM compound + 1 μM β-FNA
[23] = Series C-1, 1 μM compound + β-FNA, relative to DAMGO + BFNA
[24] = Series C-1, 1 μM compound, relative to DAMGO
[25] = Series C-1, 1 μM compound, [35S]GTPγS binding to Gαo, striatal membranes

| Structure (SMILES) | inhibition at 0.01 µM [1, 2] | inhibition at 0.1 µM [1, 3] | inhibition at 1 µM [1, 4] | inhibition at 0.01 µM [1, 11] | inhibition at 0.1 µM [1, 12] | inhibition at 1 µM [1, 13] | % DAMGO (0.1 μM) (mu opiate receptor (MOR); [20]) | Concentration of FLNA-Binding Compound as Agonist 0.1 μM (mu opiate receptor (MOR); [21]) | Concentration of FLNA-Binding Compound as Agonist 1 μM + BFNA (mu opiate receptor (MOR); [22]) | % DAMGO + BFNA (mu opiate receptor (MOR); [23]) | % DAMGO (1 μM) (mu opiate receptor (MOR); [24]) | Concentration of FLNA-Binding Compound as Agonist 1 μM (mu opiate receptor (MOR); [25]) | further results |
| --- | --- | --- | --- | --- | --- | --- | --- | --- | --- | --- | --- | --- | --- |
| CC(=O)N1CCSC12CCN(S(=O)(=O)c1ccc([N+](=O)[O-])cc1)CC2 [Compound C0050] | 26.7% | 34.5% | 36.4% |  |  |  |  |  |  |  |  |  | % DAMGO (0.1 μM) (mu opiate receptor (MOR); [5]): 76.1%; MOR agonist activity, percent [35S]GTPγS binding at the stated compound concentration (mu opiate receptor (MOR); [6]): 110.3%; MOR agonist activity, percent [35S]GTPγS binding at the stated compound concentration (mu opiate receptor (MOR); [7]): 59.0%; % DAMGO + BFNA (mu opiate receptor (MOR); [8]): 134.1%; % DAMGO (1 μM) (mu opiate receptor (MOR); [9]): 54.8%; MOR agonist activity, percent [35S]GTPγS binding at the stated compound concentration (mu opiate receptor (MOR); [10]): 127.6% |
| COc1c2c(cc3c1C(CC(=O)c1cccc(C(F)(F)F)c1)[N+](C)(C)CC3)OCO2 (stereo not drawn) [Compound B0006] |  |  |  | 45.1% | 53.5% | 61.3% |  |  |  |  |  |  | % DAMGO (0.1 μM) (mu opiate receptor (MOR); [14]): 44.8%; MOR agonist activity, percent [35S]GTPγS binding at the stated compound concentration (mu opiate receptor (MOR); [15]): 77.0%; MOR agonist activity, percent [35S]GTPγS binding at the stated compound concentration (mu opiate receptor (MOR); [16]): 18.6%; % DAMGO + BFNA (mu opiate receptor (MOR); [17]): 29.0%; % DAMGO (1 μM) (mu opiate receptor (MOR); [18]): 47.5%; MOR agonist activity, percent [35S]GTPγS binding at the stated compound concentration (mu opiate receptor (MOR); [19]): 131.3% |
| O=[N+]([O-])c1ccc(S(=O)(=O)N2CCC3(CC2)NCCO3)cc1 [Compound C0040] | 38.4% | 46.3% | 55.9% |  |  |  |  |  |  |  |  |  | % DAMGO (0.1 μM) (mu opiate receptor (MOR); [5]): 93.1%; MOR agonist activity, percent [35S]GTPγS binding at the stated compound concentration (mu opiate receptor (MOR); [6]): 145.8%; MOR agonist activity, percent [35S]GTPγS binding at the stated compound concentration (mu opiate receptor (MOR); [7]): 90.4%; % DAMGO + BFNA (mu opiate receptor (MOR); [8]): 277.3%; % DAMGO (1 μM) (mu opiate receptor (MOR); [9]): 133.2%; MOR agonist activity, percent [35S]GTPγS binding at the stated compound concentration (mu opiate receptor (MOR); [10]): 308.3% |
| COc1ccc(C(=O)N2CCOC23CCN(S(=O)(=O)c2ccc(OC)cc2)CC3)cc1 [Compound C0019] |  |  |  | 30.1% | 38.2% | 43.6% | 59.1% | 104.4% | 52.8% | 80.4% | 68.1% | 176.6% |  |
| O=C(c1ccc([N+](=O)[O-])cc1)N1CCC2(CC1)OCCN2C(=O)c1ccc([N+](=O)[O-])cc1 [Compound C0032] |  |  |  | 41.5% | 50.5% | 55.3% | 92.8% | 145.4% | 80.9% | 248.2% | 87.3% | 202.0% |  |
| CC1CN(CC(O)COc2cc(F)cc(F)c2)CC(C)O1 (stereo not drawn) [Compound A0046] | 34.3% | 38.4% | 40.9% |  |  |  |  |  |  |  |  |  | MOR agonist activity ([35S]GTPγS binding), FLNA-Binding Compound as Agonist 0.1 μM (mu opiate receptor (MOR); 0.1 μM compound): 257.5%; % DAMGO (0.1 μM) (mu opiate receptor (MOR); 0.1 μM compound relative to DAMGO): 131.2%; MOR agonist activity ([35S]GTPγS binding), FLNA-Binding Compound as Agonist 1 μM (mu opiate receptor (MOR); 1 μM compound): 354.1%; MOR agonist activity ([35S]GTPγS binding), FLNA-Binding Compound as Agonist 1 μM + BFNA (mu opiate receptor (MOR); 1 μM compound + 1 μM β-funaltrexamine): 140.0%; % DAMGO + BFNA (mu opiate receptor (MOR); 1 μM compound + BFNA relative to DAMGO + BFNA): 189.4%; % DAMGO (1 μM) (mu opiate receptor (MOR); 1 μM compound relative to DAMGO): 128.3% |
| CCCCc1ccc(S(=O)(=O)N2CCC3(CC2)OCCN3S(=O)(=O)c2ccc(CCCC)cc2)cc1 [Compound C0030] | 37.4% | 45.4% | 56% |  |  |  | 96.0% | 150.3% | 95.0% | 291.4% | 98.0% | 226.8% |  |
| O=S(=O)(c1ccc(F)c(F)c1)N1CCC2(CC1)OCCN2S(=O)(=O)c1ccc(F)c(F)c1 [Compound C0072] | 28.4% | 37.4% | 44% |  |  |  | 100.3% | 172.7% | 67.1% | 194.5% | 117.9% | 259.1% |  |
| COc1c2c(cc3c1C(CC(=O)CCc1ccccc1)N(C)CC3)OCO2 (stereo not drawn) [Compound B0050] | 29.2% | 34.5% | 39.8% |  |  |  |  |  |  |  |  |  | % DAMGO (0.1 μM) (mu opiate receptor (MOR); [14]): 58.1%; MOR agonist activity, percent [35S]GTPγS binding at the stated compound concentration (mu opiate receptor (MOR); [15]): 98.2%; MOR agonist activity, percent [35S]GTPγS binding at the stated compound concentration (mu opiate receptor (MOR); [16]): 48.8%; % DAMGO + BFNA (mu opiate receptor (MOR); [17]): 294.0%; % DAMGO (1 μM) (mu opiate receptor (MOR); [18]): 96.4%; MOR agonist activity, percent [35S]GTPγS binding at the stated compound concentration (mu opiate receptor (MOR); [19]): 211.0% |
